Laboratory results: publication PMC8624998, “Synthesis and Antiproliferative Evaluation of 3-Chloroazetidin-2-ones with Antimitotic Activity: Heterocyclic Bridged Analogues of Combretastatin A-4” (Pharmaceuticals, 2021)
Where two headings read alike, the source gives them in different places. Values belong to the compound of their own block, whether it stands above or below them.

Experiments:
MCF-7 cells = assay: Cell viability assay (MTT/AlamarBlue), antiproliferative activity; assay type: cell-based, human; conditions: read-out: IC50 (MCF-7, 72 h)
Summary of the method: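 MCF-7 cells seeded, left 24 h at 37 °C, then exposed 72 h to compound (1 nM–200 μM, or 0.001–100 μM) in ethanol or DMSO vehicle (≤1% ethanol, 0.1% DMSO). Viability read by MTT (1 mg/mL final, 3 h) or AlamarBlue (10% v/v, 3–5 h), relative to untreated controls as 100%.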

HL-60 cells = assay: Cell viability assay, antiproliferative activity; assay type: cell-based
Experimental: (§1) […]. The corresponding values for 10e in these cell lines were 161 nM (HL-60), 55 nM (SW480) and 135 nM (HT-29). […] […]. SW480 colon cells expressed low levels of the UDP-glucuronosyltransferase (UGT) protein compared to expression levels in HT-29 cells. […] […].
(§2) The human breast carcinoma cell line MCF-7 was purchased from the European Collection of Animal Cell Cultures (ECACC). Triple negative breast cancer Hs578T cells and its invasive variant Hs578Ts(i)8 were a kind gift from Dr. Susan McDonnell, School of Chemical and Bioprocess Engineering, University College Dublin. U266 cells were a gift from Dr. Tony McElligott, School of Medicine, St James’s Hospital, Trinity College Dublin. HT-29 cells were purchased from the European Collection of Cell Cultures (originating from a human adenocarcinoma of the colon). The human breast carcinoma cell line MDA-MB-231 and the HL-60 cells derived from a patient with acute myeloid leukaemia were both obtained from ECACC (Salisbury, UK). The SW-480 cells were a kind gift from Dr. Brian Flood, School of Biochemistry and Immunology, Trinity College Dublin. HEK-293T (normal epithelial embryonic kidney cells) were cultured in Dulbecco’s Modified Eagle’s Medium (DMEM) with GlutaMAXTM-I in the absence of non-essential amino acids. Human breast cancer MCF-7 cells and multiple myeloma U266 cells were cultured in Minimum Essential Media (MEM) with GlutaMAX™-I, supplemented with 1% (v/v) non-essential amino acids, 10% 2(v/v) foetal bovine serum (FBS) and 1% (v/v) penicillin/streptomycin 5000 U/mL. MDA-MB-231 cells were maintained in DMEM supplemented with 10% (v/v) foetal bovine serum, 2 mM L-glutamine and 100 μg/mL penicillin/streptomycin (complete medium). Colon cancer HT-29 and SW-480 and triple negative breast cancer Hs578T and its invasive variant Hs578T8i were cultured in DMEM with GlutaMAX™-I, with the same supplement in the absence of non-essential amino acids. Leukaemia HL-60 cancer cells were cultured in Roswell Park Memorial Institute Media (RPMI-1640) with GlutaMAX™-I, supplemented with 10% FCS media, and 100 μg/mL penicillin/streptomycin as above. Cell numbers were monitored using a haemocytometer. Cell culture flasks were incubated in a humidified incubator (5% CO2/95% air) at 37 °C. All cell lines were sub-cultured three times per week with trypsinisation using TrypLE Express (1X) required for adherent cell lines.
(§3) . All stock solutions and serial dilution in ethanol/DMSO were stored at -20 °C. All cells were seeded at a density of 2.5 × 10^4 cells/mL in a 96-well plate (200 μL per well). The cells were incubated in a […] atmosphere at 37 °C for 24 h, then treated with test compound (2 μL of stock solutions per 200-microlitre well) in ethanol to obtain a concentration range of 1 nM–200 μM for the study. The plates were then re-incubated for a further 72 h. Control wells contained an equivalent volume of the vehicle ethanol or DMSO (1% v/v). MTT cell viability assay: The culture medium was removed, and the cells were washed with phosphate buffered saline (PBS, […]). MTT (dissolved in PBS, […]) was added to obtain a final concentration of MTT (1 mg/mL). Cells were incubated at 37 °C for 3 h in the dark. Solubilisation was commenced by the addition of DMSO ([…]) and the cells were maintained at 20 °C in the dark for 20 min before reading the absorbance to ensure complete colour diffusion. The absorbance value of control cells (no added compound) was set to 100% cell viability and absorbance versus cell density per well was determined to assess cell viability using Graph-Pad Prism software. AlamarBlue cell viability assay: Cells were seeded in 96-well plates (e.g., MCF-7, 5 × 10^3 cells/well) and (HT-29 cells, 1 × 10^3 cells/well) and (HL-60 cells, 1 × 10^4 cells/well) with a total volume per well of 200 µL. After 24 h, cells were treated in triplicate with serial dilutions of CA-4 or β-lactam analogues (0.001–100 μM), medium alone or vehicle (1% ethanol (v/v)). […]

SW480 cells = assay: Cell viability assay, antiproliferative activity; assay type: cell-based, human
Experimental: as §1, §2, §3

HT29 = assay: NCI-60 5 dose screen, Colon Cancer; assay type: cell-based; conditions: Homo sapiens, HT-29
A498 = assay: NCI-60 5 dose screen, Renal Cancer; assay type: cell-based; conditions: Homo sapiens
U251 = assay: NCI-60 5 dose screen, CNS Cancer; assay type: cell-based; conditions: Homo sapiens, U-251
UACC-257 = assay: NCI-60 5 dose screen, Melanoma; assay type: cell-based; conditions: Homo sapiens
SK-OV-3 = assay: NCI-60 5 dose screen, Ovarian Cancer; assay type: cell-based; conditions: Homo sapiens
OVCAR-5 = assay: NCI-60 5 dose screen, Ovarian Cancer; assay type: cell-based; conditions: Homo sapiens
A549/ATCC = assay: NCI-60 5 dose screen, NSC Lung Cancer; assay type: cell-based; conditions: Homo sapiens
DU-145 = assay: NCI-60 5 dose screen, Prostate cancer; assay type: cell-based; conditions: Homo sapiens
SNB-19 = assay: NCI-60 5 dose screen, CNS Cancer; assay type: cell-based; conditions: Homo sapiens
MCF-7 = assay: NCI-60 5 dose screen, Breast Cancer; assay type: cell-based; conditions: Homo sapiens, MCF7
SW-620 = assay: NCI-60 5 dose screen, Colon Cancer; assay type: cell-based; conditions: Homo sapiens
NCI-H23 = assay: NCI-60 5 dose screen, NSC Lung Cancer; assay type: cell-based; conditions: Homo sapiens
SK-MEL-5 = assay: NCI-60 5 dose screen, Melanoma; assay type: cell-based; conditions: Homo sapiens
SK-MEL-28 = assay: NCI-60 5 dose screen, Melanoma; assay type: cell-based; conditions: Homo sapiens
HCT-2998 = assay: NCI-60 5 dose screen, Colon Cancer; assay type: cell-based; conditions: Homo sapiens
[1] = Homo sapiens, MCF7, 72 h, MCF-7, 72 h
[2] = Homo sapiens, HL-60, 72 h; read-out: HL-60 IC50
[3] = Homo sapiens, SW480, 72 h; read-out: SW480 IC50
[4] = MCF-7, NCI screen, read-out: GI50 in MCF-7 cells

IC50 (MCF-7 cells; [1]): 17.5 ± 9 nM
IC50 (MCF-7 cells; MCF-7, 72 h): 17 ± 9 nM
IC50 (HL-60 cells; [2]): 10 ± 8 nM
IC50 (SW480 cells; [3]): 37 ± 5 nM
Compound: COc1ccc(C2C(Cl)C(=O)N2c2cc(OC)c(OC)c(OC)c2)cc1O (stereo not drawn) [Compound 10n, 3-Chloro-4-(3-hydroxy-4-methoxy-phenyl)-1-(3,4,5-trimethoxyphenyl)azetidin-2-one]

Compound: COc1ccc(C2N(c3cc(OC)c(OC)c(OC)c3)C(=O)C2(Cl)Cl)cc1O (stereo not drawn) [Compound 11n, 3,3-Dichloro-4-(3-hydroxy-4-methoxyphenyl)-1-(3,4,5-trimethoxyphenyl)azetidin-2-one]
GI50 (HT29): 2780 nM
GI50 (A498): 22.6 nM
GI50 (U251): 32.5 nM
IC50 (MCF-7 cells; Homo sapiens, MCF7, 72 h): 31 ± 4 nM
GI50 (UACC-257): 158 nM
GI50 (SK-OV-3): 25.4 nM
GI50 (OVCAR-5): 312 nM
GI50 (A549/ATCC; A549): 38.2 nM
GI50 (DU-145): 35.9 nM
GI50 (SNB-19): 45.7 nM
IC50 (HL-60 cells; Homo sapiens, HL-60, 72 h, read-out: HL-60 IC50): 16 ± 5 nM
GI50 (MCF-7): 31 nM
GI50 (SW-620): 37.6 nM
GI50 (NCI-H23): 24.2 nM
IC50 (SW480 cells; Homo sapiens, SW480, 72 h, read-out: SW480 IC50): 44 ± 8 nM
GI50 (SK-MEL-5): 22.5 nM
GI50 (SK-MEL-28): 62.9 nM
GI50 (HCT-2998): 53.4 nM

Compound: COc1ccc(/C=C\c2cc(OC)c(OC)c(OC)c2)cc1O [CA-4, Combretastatin A-4]
IC50 (MCF-7 cells; [1]): 3.9 nM
IC50 (MCF-7 cells; MCF-7, 72 h): 4 nM
IC50 (HL-60 cells; [2]): 1.9 ± 0.5 nM
IC50 (HL-60 cells; Homo sapiens, HL-60; read-out: HL-60 IC50): 2 nM
IC50 (SW480 cells; [3]): 3 ± 0.8 nM

IC50 (MCF-7 cells; [1]): 56 ± 7 nM
IC50 (HL-60 cells; [2]): 161 ± 20 nM
IC50 (SW480 cells; [3]): 55 ± 4 nM
Compound: COc1ccc([C@H]2[C@H](Cl)C(=O)N2c2cc(OC)c(OC)c(OC)c2)cc1 (relative stereo) [Compound 10e trans, Trans-3-chloro-1-(3,4,5-trimethoxyphenyl)-4-(4-methoxyphenyl) azetidin-2-one]
GI50 (HT29; HT29, read-out: GI50): 29.2 nM
GI50 (A498; read-out: GI50): 27.1 nM
GI50 (U251; U251, read-out: GI50): 37 nM
GI50 (UACC-257; read-out: GI50): 23300 nM
GI50 (SK-OV-3; read-out: GI50): 182 nM
GI50 (OVCAR-5; read-out: GI50): 80.6 nM
GI50 (A549/ATCC; A549/ATCC, read-out: GI50): 78.5 nM
GI50 (DU-145; read-out: GI50): 44.6 nM
GI50 (SNB-19; read-out: GI50): 74.6 nM
GI50 (MCF-7; [4]): 34 nM
GI50 (MCF-7; MCF-7, read-out: GI50): 34.3 nM
GI50 (SW-620; read-out: GI50): 43.2 nM
GI50 (NCI-H23; read-out: GI50): 31.2 nM
GI50 (SK-MEL-5; read-out: GI50): 31.2 nM
GI50 (SK-MEL-28; read-out: GI50): 69.6 nM
GI50 (HCT-2998; HCT-2998, read-out: GI50): 80.4 nM

Compound: CCSc1ccc(C2C(Br)C(=O)N2c2cc(OC)c(OC)c(OC)c2)cc1 (stereo not drawn) [Compound 16d, 3-Bromo-4-(4-(ethylthio)phenyl)-1-(3,4,5-trimethoxyphenyl)azetidin-2-one]
GI50 (HT29; HT29, read-out: GI50): 351 nM
GI50 (A498; read-out: GI50): 103 nM
GI50 (U251; U251, read-out: GI50): 345 nM
IC50 (MCF-7 cells; [1]): 1100 ± 100 nM
GI50 (UACC-257; read-out: GI50): 14300 nM
GI50 (SK-OV-3; read-out: GI50): 392 nM
GI50 (OVCAR-5; read-out: GI50): 431 nM
GI50 (A549/ATCC; A549/ATCC, read-out: GI50): 598 nM
GI50 (DU-145; read-out: GI50): 349 nM
GI50 (SNB-19; read-out: GI50): 440 nM
GI50 (MCF-7; [4]): 44 nM
GI50 (MCF-7; MCF-7, read-out: GI50): 44.7 nM
GI50 (SW-620; read-out: GI50): 236 nM
GI50 (NCI-H23; read-out: GI50): 478 nM
GI50 (SK-MEL-5; read-out: GI50): 86.1 nM
GI50 (SK-MEL-28; read-out: GI50): 1940 nM
GI50 (HCT-2998; HCT-2998, read-out: GI50): 673 nM
